In patent EP1174424A1, “3-[…] D DERIVATIVES” (CHUGAI SEIYAKU KABUSHIKI KAISHA, priority 1999, dated 2000):

target: T1, Bovine thymus 1α,25-dihydroxy vitamin D3 receptor (Bos taurus, UniProt Q28037); assay: Assay for binding to vitamin D receptor (VDR); displacement of [3H]-1α,25-dihydroxy vitamin D3; settings: relative value, with that of 1α,25-dihydroxy vitamin D3 taken as 100; [3H]-1α,25-dihydroxy vitamin D3 at 0.1 nM, overnight at 4°C
T1 construct: Bovine thymus 1α,25-dihydroxy vitamin D3 receptor was purchased from YAMASA BIOCHEMICAL; purchased YAMASA BIOCHEMICAL (Choshi, Chiba, Japan); host or cells: bovine thymus (tissue preparation)
T1 sequence (Q28037 1-426): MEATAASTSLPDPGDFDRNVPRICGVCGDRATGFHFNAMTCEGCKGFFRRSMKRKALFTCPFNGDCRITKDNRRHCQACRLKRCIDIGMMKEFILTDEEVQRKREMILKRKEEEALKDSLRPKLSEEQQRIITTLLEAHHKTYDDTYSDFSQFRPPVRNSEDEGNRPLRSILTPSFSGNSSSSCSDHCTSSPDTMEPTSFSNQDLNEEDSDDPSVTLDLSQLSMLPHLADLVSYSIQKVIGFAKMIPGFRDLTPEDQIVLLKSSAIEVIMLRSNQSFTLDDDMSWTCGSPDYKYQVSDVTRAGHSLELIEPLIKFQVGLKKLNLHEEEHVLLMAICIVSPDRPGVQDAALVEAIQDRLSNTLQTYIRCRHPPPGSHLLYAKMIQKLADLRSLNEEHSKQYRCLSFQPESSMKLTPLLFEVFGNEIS
Method: Test example 1: Assay for binding to vitamin D receptor (VDR)
Bovine thymus 1α,25-dihydroxy vitamin D3 receptor was purchased from YAMASA BIOCHEMICAL (Choshi, Chiba, Japan) and dissolved in 0.05 M phosphate buffer (pH 7.4) containing 0.3M KCl and 5mM dithiothreitol just before use. Aliquots (500 µl, 0.23 mg protein) of the receptor solution and ethanol solutions (50 µl) of 1α,25-dihydroxy vitamin D3 or derivatives (compounds of the present invention) at various concentrations were combined, and pre-incubated at 25°C for 60 minutes. To the resultant receptor mixtures, [^3H]-1α,25-dihydroxy vitamin D3 was added at 0.1 nM, followed by standing overnight at 4°C. The mixtures were treated with dextran coated charcoal for 30 minutes at 4°C to separate the bound arid free forms of [^3H]-1α,25-dihydroxy vitamin D3, and centrifuged at 3000 rpm for ten minutes. Each of the resultant supernatants (500 µl) was mixed with ACS-II (9.5 ml) (AMERSHAM, England) for radioactivity measurement.
The binding property of the compounds of the present invention was expressed in relative values, with that of 1α,25-dihydroxy vitamin D3 taken as 100. (Table 1)

`C=C1/C(=C\C=C2/CCC[C@]3(C)[C@@H]([C@H](C)CCCC(C)(C)O)CC[C@@H]23)C[C@](C)(O)C[C@@H]1O` [3-Me-(1α,3α)-dihydroxy vitamin D3] was tested. Which Binding property did it give?
The Binding property was < 0.1.

With `C=C1/C(=C\C=C2/CCC[C@]3(C)[C@@H]([C@H](C)CCCC(C)(C)O)CC[C@@H]23)C[C@@](C)(O)C[C@@H]1O` [3-Me-(1α,3β)-dihydroxy vitamin D3] as the compound, how does the Binding property read?
The Binding property was 18.

With `C=C1/C(=C\C=C2/CCC[C@]3(C)[C@@H]([C@H](C)CCCC(C)(C)O)CC[C@@H]23)C[C@](C)(O)C[C@H]1O` [3-Me-(1β,3α)-dihydroxy vitamin D3, 3-methyl-1β,3α-dihydroxy vitamin D3] as the compound, how does the Binding property read?
Its Binding property is < 0.1.

`C=C1/C(=C\C=C2/CCC[C@]3(C)[C@@H]([C@H](C)CCCC(C)(C)O)CC[C@@H]23)C[C@@](C)(O)C[C@H]1O` [3-Me-(1β,3β)-dihydroxy vitamin D3, 3-methyl-1β,3β-dihydroxy vitamin D3] was tested. Which Binding property did it give?
Its Binding property is < 0.1.
